{"source": "patent US20250177481A1", "about": "“SCO-spondin-derived polypeptides for enhancing synaptic transmission” (AXOLTIS PHARMA, priority 2021, published 2025)", "key": {"[1]": {"system": "AMPAr currents in hippocampal CA1 pyramidal neurons", "test": "whole-cell patch-clamp, isolated AMPAr EPSCs evoked by Schaffer collateral stimulation (series 2)", "assay_type": "cell-based, C57Bl6/J mice", "details": "after 10 min wash-out of NX218 250 μg/mL (T30); mean of 10 neurons", "text": "Twelve (C57Bl6/J) male mice 4-5 weeks-old were obtained from Charles River, France and housed in an animal facility. Animal care was compliant with national and local Ethics committee recommendations. Sagittal hippocampal brain slices were obtained using standard brain slicing methods (approximately 6 slices per mouse) (Knobloch et al. 2007). Mice were anesthetized with isoflurane and then decapitated. Brain was dissected out of the cranium and immediately immersed in ice-cold freshly prepared aCSF containing: 124 mM NaCl, 3.75 mM KCl, 2 mM MgSO4, 2 mM CaCl2, 26.5 mM NaHCO3, 1.25 mM NaH2PO4, 10 mM glucose, continuously oxygenated (pH=7.4) for a total duration of 3-4 minutes. Acute slices (350 μm thick) were prepared using a vibratome (VT 1000S; Leica Microsystems, Bannockburn, IL). Sections were incubated in standard aCSF at room temperature for at least 1 h before recordings. […]\nThe signal was amplified with an Axopatch 200B amplifier (Molecular Devices, Union City, CA), digitized by a Digidata 1550 interface (Molecular Devices) and […]. Recordings were acquired using Clampex (Molecular Devices) and analyzed with Clampfit (Molecular Devices). […]"}, "pCREB": {"system": "pCREB", "test": "pCREB protein level in cortical samples of subchronic PCP mice (WES automated protein analysis)", "assay_type": "in vivo, Swiss CD-1 mice", "details": "PCP + NX218 5 mg/kg D14; PCP alone 44.17; n=5", "method": "PCP (or saline for control group) was administered at a dose of 0.2 mg/kg by subcutaneous injections twice daily for 12 days (day 0 to day 11).\nApproximately 5 minutes after the test, mice were anaesthetized with 5% isoflurane oxygen mixture. Brains were extracted immediately, then the cortex of each hemisphere were collected. Right and left cortices were transferred into clean pre-labelled microtubes and the exact weight of each sample was recorded. Finally, samples were stored at −80° C. for further analysis.\nBrain samples were lysed with a defined buffer lysis consisting of CelLyticMT reagent with 1% of protease and phosphatase inhibitor cocktail (60 μL per well). Lysates were processed at +4° C. and stored at −80° C. at the end of the experiment. For each sample, the quantity of proteins was determined using the micro kit BCA (Pierce). Briefly, lysates were centrifuged and diluted at 1/20 in PBS and mixed, in equal volume, with a micro BCA. After an incubation at 60° C. for 1 hour, the quantity of proteins was measured at 562 nm with a spectrophotometer Nanovue (GE Healthcare) and compared with the standard of Bovine Serum Albumin curve (BSA, Pierce).\nAutomated protein analysis were performed using the WES™ system (ProteinSimple®): […]\nEach protein was evaluated independently. […] 5 samples (biological replicates) per condition were analyzed."}}, "note": "Positions of bridges follow the written chain, without caps; N, C: chain ends. No end group written: not given here.", "data": [{"substance": "W-S-G-W-S-S-C-S-R-S-C-G [NX218] (WSGWSSCSRSCG; disulfide 7-11 (inferred))", "values": [{"measurement": "Amplitude of evoked isolated AMPA excitatory postsynaptic currents", "setting": "[1]", "value": 153, "unit": "pA"}, {"measurement": "pCREB protein level in cortical samples", "setting": "pCREB", "value": "68.67 % of control"}]}]}
